According to patent publication EP4759807A1, “PROTEOLYSIS TARGETING CHIMERA COMPOUND FOR DEGRADING IRAK4 AND USE THEREOF” (Shenzhen Zhongge Biological Technology Co., Ltd., priority 2023, dated 2025):
Like-named read-outs stand apart in the source and are kept apart here.

Target: T1, IRAK4 (Homo sapiens, UniProt Q9NWZ3)
T1 sequence (Q9NWZ3 1-460): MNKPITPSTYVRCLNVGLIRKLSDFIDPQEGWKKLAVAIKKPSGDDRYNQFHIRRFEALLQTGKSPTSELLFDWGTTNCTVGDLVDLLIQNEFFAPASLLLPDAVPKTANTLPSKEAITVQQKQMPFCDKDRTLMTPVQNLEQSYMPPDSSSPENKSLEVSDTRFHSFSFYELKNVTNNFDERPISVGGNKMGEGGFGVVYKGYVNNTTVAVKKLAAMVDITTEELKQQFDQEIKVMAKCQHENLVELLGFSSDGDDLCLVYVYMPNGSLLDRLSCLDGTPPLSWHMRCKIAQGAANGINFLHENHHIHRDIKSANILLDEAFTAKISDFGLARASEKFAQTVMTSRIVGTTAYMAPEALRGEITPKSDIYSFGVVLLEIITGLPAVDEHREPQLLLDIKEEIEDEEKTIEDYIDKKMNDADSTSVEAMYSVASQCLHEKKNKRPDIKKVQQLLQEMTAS
Experiment: Hibit fluorescence detection of proteolysis (IRAK4-HiBiT in HEK293T cells)
Format: cell-based
Set-up: host or cells: HEK293T (ATCC)
Conditions: for Dmax: HEK-293T
Description: Utilizing HiBiT tag technology, the HiBiT tag-containing sequence (Seq. ID. No. 1, Beijing Tsingke Biotech Co., Ltd.) was connected to the IRAK4 plasmid (Seq. ID. No. 2, Beijing Tsingke Biotech Co., Ltd.), and the plasmid was transfected into HEK293T cells (ATCC). […] The 6-well plate that was incubated overnight was taken out. After the plate was left at room temperature for 15 min, the obtained mixture was added dropwise to the 6-well plate. […] Culture was performed at 37°C and 5% CO2 for 24 h. The 384-well plate was taken out and equilibrated to room temperature. 40 µL of Nano-Glo® HiBiT Lytic Detection System (Promega N3030) was added to each well and incubated at room temperature for 15 min. […] Prism 9.3 software was used to perform fitting analysis for data, and non-linear fitting (non-liner inhibitor (Bell-shaped)) and four parameters (4 parameter) were used, and the parameters was as follows: Span1 = Plateau1−Dip [formula] Span2 = Plateau2−Dip [formula] Section1 = Span1/(1+10^(∧)((LogEC50_1−X)*nH1)) [formula] Section2 = Span2/(1+10^(∧)((X−LogEC50_2)*nH2)) [formula]
The equation was as follows: Y=Dip+Section1+Section2. • Seq. ID. No. 1 ([…]), other DNA, synthetic construct, sequence length 33; • Seq. ID. No. 2 [formula]

[1] = IRAK4-HiBiT, HEK293T cells, 24 h
[2] = IRAK4-HiBiT, HEK293T cells, 24 h, read-out: DC50

**Q.** Which results are given for `Cn1c(=O)n(C2CCC(=O)NC2=O)c2cccc(CN3CCC4(CC3)CCN(C[C@H]3CC[C@H](n5cc(-n6cc(-c7cnn8ccc(N9CCOCC9)nc78)nn6)c(C(F)F)n5)CC3)CC4)c21` (some centres unmarked) [Example 6]?
**A.** Dmax: < 60%; DC50 [1]: < 500 pM

**Q.** For `Cn1c(=O)n(C2CCC(=O)NC2=O)c2cccc(C#CCOC3CCN(C[C@H]4CC[C@H](n5cc(-n6cc(-c7cnn8ccc(N9CCOCC9)nc78)nn6)c(C(F)F)n5)CC4)CC3)c21` (some centres unmarked) [Example 7], which Dmax is on record?
**A.** Its Dmax is 60 to 70%.

**Q.** What about the DC50 [1] of the same molecule?
**A.** The DC50 was less than 500 pM.

**Q.** `Cn1c(=O)n(C2CCC(=O)NC2=O)c2cccc(CC3CCN(CC4CCN(C[C@H]5CC[C@H](n6cc(-n7cc(-c8cnn9ccc(N%10CCOCC%10)nc89)nn7)c(C(F)F)n6)CC5)CC4)CC3)c21` (some centres unmarked) [Example 8] was tested. Which Dmax did it give?
**A.** The Dmax was less than 60%.

**Q.** What about the DC50 [1] of the same molecule?
**A.** Its DC50 is greater than 5000 pM.

**Q.** `Cn1c(=O)n(C2CCC(=O)NC2=O)c2cccc(NCC3CC4(CCN(C[C@H]5CC[C@H](n6cc(-n7cc(-c8cnn9ccc(N%10CCOCC%10)nc89)nn7)c(C(F)F)n6)CC5)CC4)C3)c21` (some centres unmarked) [Example 9] was tested. Which Dmax did it give?
**A.** Its Dmax is less than 60%.

**Q.** What about the DC50 [1] of the same molecule?
**A.** Its DC50 is less than 500 pM.

**Q.** What does the source list for `Cn1c(=O)n(C2CCC(=O)NC2=O)c2cccc(CNC3CC4(CCN(C[C@H]5CC[C@H](n6cc(-n7cc(-c8cnn9ccc(N%10CCOCC%10)nc89)nn7)c(C(F)F)n6)CC5)CC4)C3)c21` (some centres unmarked) [Example 10]?
**A.** Dmax: > 80%; DC50 [1]: < 500 pM

**Q.** `Cn1c(=O)n(C2CCC(=O)NC2=O)c2cccc(C3CCN(C[C@H]4CC[C@H](n5cc(-n6cc(-c7cnn8ccc(N9CCOCC9)nc78)nn6)c(C(F)F)n5)CC4)CC3)c21` (some centres unmarked) [Example 11, 3-(4-(1-(((1r,4r)-4-(3-(difluoromethyl)-4-(4-(5-morpholinopyrazolo[1,5-a]pyrimidin-3-yl)-1H-1,2,3-triazol-1-yl)-1H-pyrazol-1-yl)cyclohexyl)methyl)piperidin-4-yl)-3-methyl-2-oxo-2,3-dihydro-1H-benzo[d]imidazol-1-yl)piperidine-2,6-dione] was tested. Which Dmax did it give?
**A.** The Dmax was greater than 80%.

**Q.** What about the DC50 [1] of the same molecule?
**A.** Its DC50 is less than 500 pM.

**Q.** What does the source list for `Cn1c(=O)n(C2CCC(=O)NC2=O)c2cccc(CN3CC4(C3)CN(C[C@H]3CC[C@H](n5cc(-n6cc(-c7cnn8ccc(N9CCOCC9)nc78)nn6)c(C(F)F)n5)CC3)C4)c21` (some centres unmarked) [Example 12, 3-(4-((6-(((1r,4r)-4-(3-(difluoromethyl)-4-(4-(5-morpholinopyrazolo[1,5-a]pyrimidin-3-yl)-1H -1,2,3-triazol-1-yl)-1H-pyrazol-1-yl)cyclohexyl)methyl)-2,6-diazaspiro[3.3]hept-2-yl)methyl)-3-methyl-2-oxo-2,3-dihydro-1H-benzo[d]imidazol-1-yl)piperidine-2,6-dione]?
**A.** Dmax: 70 to 80%; DC50 [1]: < 500 pM

**Q.** Which results are given for `Cn1c(=O)n(C2CCC(=O)NC2=O)c2cccc(CN3CC4(CCN(C[C@H]5CC[C@H](n6cc(-n7cc(-c8cnn9ccc(N%10CCOCC%10)nc89)nn7)c(C(F)F)n6)CC5)CC4)C3)c21` (some centres unmarked) [Example 13, 3-(4-((7-(((1r,4r)-4-(3-(difluoromethyl)-4-(4-(5-morpholinopyrazolo[1,5-a]pyrimidin-3-yl)-1H -1,2,3-triazol-1-yl)-1H-pyrazol-1-yl)cyclohexyl)methyl)-2,7-diazaspiro[3.5]nonan-2-yl)methyl)-3-methyl-2-oxo-2,3-dihydro-1H-benzo[d]imidazol-1-yl)piperidine-2,6-dione]?
**A.** Dmax: > 80%; DC50 [1]: < 500 pM

**Q.** `Cn1c(=O)n(C2CCC(=O)NC2=O)c2cccc(CN3CCC4(CC3)CN(C[C@H]3CC[C@H](n5cc(-n6cc(-c7cnn8ccc(N9CCOCC9)nc78)nn6)c(C(F)F)n5)CC3)C4)c21` (some centres unmarked) [Example 14] was tested. Which Dmax did it give?
**A.** Its Dmax is less than 60%.

**Q.** And the DC50 [1]?
**A.** The DC50 was 500 to 1000 pM.

**Q.** For `CN(C[C@H]1CC[C@H](n2cc(-n3cc(-c4cnn5ccc(N6CCOCC6)nc45)nn3)c(C(F)F)n2)CC1)C1CCN(Cc2cccc3c2n(C)c(=O)n3C2CCC(=O)NC2=O)CC1` (some centres unmarked) [Example 15], which Dmax is on record?
**A.** The Dmax was less than 60%.

**Q.** And the DC50 [1]?
**A.** The DC50 was 1000 to 5000 pM.

**Q.** Which results are given for `Cn1c(=O)n(C2CCC(=O)NC2=O)c2cccc(CCC(=O)N3CCC4(CC3)CN(C[C@H]3CC[C@H](n5cc(-n6cc(-c7cnn8ccc(N9CCOCC9)nc78)nn6)c(C(F)F)n5)CC3)C4)c21` (some centres unmarked) [Example 16]?
**A.** Dmax: 60 to 70%; DC50 [1]: < 500 pM

**Q.** What does the source list for `Cn1c(=O)n(C2CCC(=O)NC2=O)c2cccc(C#CC3CCN(C[C@H]4CC[C@H](n5cc(-n6cc(-c7cnn8ccc(N9CCOCC9)nc78)nn6)c(C(F)F)n5)CC4)CC3)c21` (some centres unmarked) [Example 17]?
**A.** Dmax: 70 to 80%; DC50 [1]: 1000 to 5000 pM

**Q.** For `Cn1c(=O)n(C2CCC(=O)NC2=O)c2cccc(NC(=O)N3CCC4(CCN(C[C@H]5CC[C@H](n6cc(-n7cc(-c8cnn9ccc(N%10CCOCC%10)nc89)nn7)c(C(F)F)n6)CC5)C4)CC3)c21` (some centres unmarked) [Example 18, 2-(((1r,4r)-4-(3-(difluoromethyl)-4-(4-(5-morpholinopyrazolo [1,5-a]pyrimidin-3-yl)-1H-1,2,3-triazol-1-yl)-1H-pyrazol-1-yl)cyclohexyl)methyl)-N-(1-(2,6-dioxopiperidin-3-yl)-3-methyl-2-oxo-2,3-dihydro-1H-benzo[d]imidazol-4-yl)-2,8-diazaspiro[4.5]decan-8-carboxamide], which Dmax is on record?
**A.** Its Dmax is greater than 80%.

**Q.** What about the DC50 [2] of the same molecule?
**A.** Its DC50 is greater than 5000 pM.

**Q.** What does the source list for `Cn1c(=O)n(C2CCC(=O)NC2=O)c2cccc(C#CC3(O)CN(C[C@H]4CC[C@H](n5cc(-n6cc(-c7ccc8cc(C(N)=O)cnn78)nn6)c(C(F)F)n5)CC4)C3)c21` (some centres unmarked) [Example 19]?
**A.** Dmax: 70 to 80%; DC50 [1]: 500 to 1000 pM

**Q.** With `CN(C[C@H]1CC[C@H](n2cc(-n3cc(-c4cnn5ccc(N6CCOCC6)nc45)nn3)c(C(F)F)n2)CC1)C1CCC(Nc2cccc3c2n(C)c(=O)n3C2CCC(=O)NC2=O)CC1` (some centres unmarked) [Example 20, 3-(4-((4-((((1r,4r)-4-(3-(difluoromethyl)-4-(4-(5-morpholinopyrazolo[1,5-a]pyrimidin-3-yl)-1H-1,2,3-triazol-1-yl)-1H-pyrazol-1-yl)cyclohexyl)methyl)(methyl)amino)cyclohexyl)amino)-3-methyl-2-oxo-2,3-dihydro-1H-benzo[d]imidazol-1-yl)piperidine-2,6-dione] as the molecule, how does the Dmax read?
**A.** Its Dmax is greater than 80%.

**Q.** What about the DC50 [1] of the same molecule?
**A.** The DC50 was less than 500 pM.

**Q.** Which Dmax does the source give for `Cn1c(=O)n(C2CCC(=O)NC2=O)c2cccc(NC[C@H]3CC[C@@H](N(C)C[C@H]4CC[C@H](n5cc(-n6cc(-c7cnn8ccc(N9CCOCC9)nc78)nn6)c(C(F)F)n5)CC4)CC3)c21` (stereo partly drawn) [Example 21, 3-(4-((((1S,4s)-4-((((1r,4R)-4-(3-(difluoromethyl)-4-(4-(5-morpholinopyrazolo[1,5-a]pyrimidin-3-yl)-1H-1,2,3-triazol-1-yl)-1H-pyrazol-1-yl)cyclohexyl)methyl)(methyl)amino)cyclohexyl)methyl)amino)-3-methyl-2-oxo-2,3-dihydro-1H-benzo[d]imidazol-1-yl)piperidine-2,6-dione] here?
**A.** Its Dmax is less than 60%.

**Q.** What about the DC50 [1] of the same molecule?
**A.** Its DC50 is less than 500 pM.

**Q.** How did the Dmax (IRAK4-HiBiT, HEK293T cells, 24 h, read-out: Dmax) turn out when `Cc1c(/C=C2\C(=O)Nc3ccc(S(=O)(=O)Nc4ccc(F)cc4)cc32)[nH]c2cc(N3CCN(CC4CCN(c5ccc(C(=O)NC6CCC(=O)NC6=O)c(F)c5)CC4)CC3)ccc12` (centres unmarked) [Example 22, N-(2,6-dioxopiperidin-3-yl)-2-fluoro-4-(4-{[4-(2-{[(3Z)-5-[(4-fluorophenyl)sulfamoyl]-2-oxo-2,3-dihydro-1H-indol-3-ylidene]methyl}-3-methyl-1H-indol-6-yl)piperazin-1-yl]methyl}piperidin-1-yl)benzamide] was run?
**A.** Its Dmax is less than 60%.

**Q.** And the DC50 [2]?
**A.** Its DC50 is greater than 5000 pM.

**Q.** How did the Dmax turn out when `CN(C[C@H]1CC[C@H](n2cc(-n3cc(-c4cnn5ccc(N6CCOCC6)nc45)nn3)c(C(F)F)n2)CC1)C1CCC2(CC1)CC(Nc1cccc3c1n(C)c(=O)n3C1CCC(=O)NC1=O)C2` (some centres unmarked) [Example 23, 3-(4-((7-((((1r,4r)-4-(3-(difluoromethyl)-4-(4-(5-morpholinopyrazolo[1,5-a]pyrimidin-3-yl)-1H-1,2,3-triazol-1-yl)-1H-pyrazol-1-yl)cyclohexyl)methyl)(methyl)amino)spiro[3.5]nonan-2-yl)amino)-3-methyl-2-oxo-2,3-dihydro-1H-benzo[d]imidazol-1-yl)piperidine-2,6-dione] was run?
**A.** Its Dmax is greater than 80%.

**Q.** And the DC50 [1]?
**A.** The DC50 was less than 500 pM.

**Q.** Which Dmax does the source give for `Cn1c(=O)n(C2CCC(=O)NC2=O)c2cccc(NC[C@H]3CC[C@H](N(C)C[C@H]4CC[C@H](n5cc(-n6cc(-c7cnn8ccc(N9CCOCC9)nc78)nn6)c(C(F)F)n5)CC4)CC3)c21` (stereo partly drawn) [Example 24, 3-(4-((((1R,4r)-4-((((1r,4R)-4-(3-(difluoromethyl)-4-(4-(5-morpholinopyrazolo[1,5-a]pyrimidin-3-yl)-1H-1,2,3-triazol-1-yl)-1H-pyrazol-1-yl)cyclohexyl)methyl)(methyl)amino)cyclohexyl)methyl)amino)-3-methyl-2-oxo-2,3-dihydro-1H-benzo[d]imidazol-1-yl)piperidine-2,6-dione] here?
**A.** Its Dmax is less than 60%.

**Q.** And the DC50 [1]?
**A.** Its DC50 is less than 500 pM.
